# Results published in US6608082B1, “Treatment of erectile dysfunction using isoquinoline compound melanocortin receptor ligands” (Lion Bioscience AG, priority 1998, dated 2003).
# Values joined by “and” are separate entries in the source; they are usually repeats but may differ in a detail not shown here. Equal entries are not always repeated. Where two headings read alike, the source gives them in different places.
# Columns and labels:
# [1] = target: T1, MCR-1 (Homo sapiens, UniProt Q01726); experiment: Melanocortin receptor binding assay, competition with 125I-HP 467, HEK 293 cells expressing hMCR-1; conditions: for IC50: read-out: MC-1 IC50; for % Disp. MC-1 10 μM: displacement of 125I-HP 467 at 10 μM isoquinoline compound; for % Disp. of 125I-HP 467 (first of duplicate) / % Disp. of 125I-HP 467 (second of duplicate): 10 μM isoquinoline compound; for % Disp. of 125I-HP 467 (first of duplicate): HEK 293 cells expressing MCR-1, duplicate 1; for % Disp. of 125I-HP 467 (second of duplicate): HEK 293 cells expressing MCR-1, duplicate 2; for effectiveness as MC receptor ligand: binding to MC receptors, Table 1; for specificity for at least one MC receptor over another MC receptor: MCR-1 versus MCR-4 binding
# T1 construct: expressed in transfected cells; host or cells: HEK 293
# Procedure, shortened: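 Test compounds compete on intact HEK 293 cells carrying hMCR-1 (2×10^4 per tube) or hMCR-4 (4×10^3 per tube), suspended in PBS, 10% calf serum, 1 mM CaCl2.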
# [2] = target: T1, MCR-1; experiment: cAMP assay for melanocortin receptors, HEK 293 cells expressing MCR-1; assay type: cell-based; conditions: for EC50: 50% of maximal cAMP production, read-out: MC-1 EC50 (cAMP); for MC-1 Max (pmole) cAMP produced: maximum amount of cAMP
# Method: HEK 293 cells expressing MCR-1, MCR-3, MCR-4 and MCR-5 were used (see Example II). Cells were plated at 20,000 cells per well in a 96-well plate coated with collagen. The next day, cells were pretreated with 75 μl of 0.4 mM 3-isobutyl-1-methylxanthine (IBMX) in low serum medium containing DMEM, 25 mM HEPES, non-essential amino acids, vitamins, 100 units/ml penicillin, 100 μg/ml streptomycin and 0.1% COSMIC CALF SERUM. IBMX is an inhibitor of cAMP phosphodiesterase. The pretreatment was carried out for 10 min at 37° C.
# Following pretreatment, 25 μl of diluted isoquinoline compound was added to the wells, and cells were incubated for 15 min at 37° C. Cells were lysed by adding 25 μl saponin lysis buffer and incubating 2 to 5 min. Plates were covered and stored at −20° C.
# cAMP concentration was determined by ELISA. Briefly, 96 well ELISA plates were coated with goat anti-cAMP antibody in PBS for 12 to 72 hr at 4° C. 50 μl of sample was mixed with 50 μl of cAMP ELISA buffer containing 1% bovine serum albumin, 10% heat-inactivated donor horse serum, 1% normal mouse serum and 0.05% TWEEN-20 in PBS, and the diluted sample was added to the coated ELISA plate. Standards of known concentrations of cAMP were added to separate wells. 25 μl of 16 ng/ml cAMP-conjugated horse radish peroxidase (HRP) (cAMP-HRP) was added to each well, and the plates were […] at room temperature. Plates were washed and the binding of cAMP-HRP was detected with 3,3′,5,5′-tetramethylbenzidine (TMB) and hydrogen peroxide using standard immunoassay procedures.
# Various isoquinoline compounds were tested for their ability to activate MC receptor by measuring cAMP as described in Example III.
# [3] = test system: IL-10; experiment: Increasing levels of IL-10 in mice (plasma ELISA); assay type: in vivo; conditions: for % IL-10 Induction, IP 30: 30 μg per mouse; for % IL-10 Induction, IP 30 / % IL-10 Induction, IP 100 / % IL-10 Induction, IP 300 / % IL-10 Induction, Oral 600 / % IL-10 Induction, Oral 300: mouse plasma, 90 or 105 minutes; for % IL-10 Induction, IP 100: 100 μg per mouse; for % IL-10 Induction, IP 300 / % IL-10 Induction, Oral 300: 300 μg per mouse; for % IL-10 Induction, Oral 600: 600 μg per mouse
# Method: Isoquinoline compounds were administered intraperitoneally to mice in doses of 30, 100 or 300 μg/mouse or orally in doses of 300 or 600 μg/mouse. Levels of IL-10 were measured 90 or 105 minutes after administration as indicated. Samples were collected and diluted, when appropriate, as described in Example VI. A 100 μl sample of plasma was assayed by ELISA for IL-10. Briefly, ELISA plates were coated with rat anti-mouse IL-10 monoclonal antibody (Pharmingen; San Diego Calif.). Samples or known concentrations of IL-10 were added to the coated plates and incubated for 2 hr at 37° C. Plates were washed and incubated with biotinylated rat anti-mouse IL-10 (R&D Systems; Minneapolis Minn.) for 1 hr at 37° C. Plates were washed and incubated with streptavidin-HRP 30 min at 37° C., and HRP activity was detected with hydrogen peroxide and TMB using standard immunoassay procedures.
# [4] = TRG 2408 and TRG 2409 libraries, inhibition of 125I-HP 467 binding
# T1 sequence (Q01726 whole entry): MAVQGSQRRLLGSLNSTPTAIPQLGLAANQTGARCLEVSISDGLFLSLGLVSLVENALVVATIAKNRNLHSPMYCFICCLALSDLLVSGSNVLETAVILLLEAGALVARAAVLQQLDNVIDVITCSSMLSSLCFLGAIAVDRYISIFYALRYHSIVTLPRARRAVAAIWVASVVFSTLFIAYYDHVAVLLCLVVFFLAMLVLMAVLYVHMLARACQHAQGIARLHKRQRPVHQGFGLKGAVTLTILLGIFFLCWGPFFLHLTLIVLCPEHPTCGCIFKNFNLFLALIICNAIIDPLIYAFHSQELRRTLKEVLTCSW
SMILES,"IC50 ([1]; TRG 2405 section, inhibition of binding of 125I-HP 467, HEK 293 cells expressing MCR-1) [µM]",% Disp. MC-1 10 μM ([1]; first of duplicate) [%],% Disp. MC-1 10 μM ([1]; second of duplicate) [%],EC50 [2] [µM],MC-1 Max (pmole) cAMP produced [2] [pmol],% Disp. of 125I-HP 467 (first of duplicate) [1] [%],% Disp. of 125I-HP 467 (second of duplicate) [1] [%],specificity for at least one MC receptor over another MC receptor [1],"IC50 ([1]; TRG 2406 and TRG 2407 libraries, inhibition of binding of 125I-HP 467) [µM]","IC50 [1, 4] [µM]","IC50 ([1]; competition with 125I-HP 467, HEK 293 cells expressing MCR-1) [µM]","% IL-10 Induction, IP 30 [3] [%]","% IL-10 Induction, IP 100 [3]","% IL-10 Induction, IP 300 [3] [%]",effectiveness as MC receptor ligand [1],increase of IL-10 ([3]; plasma levels in mice),"% IL-10 Induction, Oral 600 [3] [%]","% IL-10 Induction, Oral 300 [3] [%]",increase of IL-10 ([3]; administered orally)
CNC(CN)CN1Cc2ccccc2C(CNC2CCCCC2)C1c1ccc(O)cc1 (stereo not drawn) [TRG 2405-156],17,25.9,21.3,20.6,16.01,–,–,–,–,–,–,17 ± 23,−5 ± 11%,43 ± 34,–,–,–,–,–
CNC(CN)CCCCN1Cc2ccccc2C(CNC2CCCCC2)C1c1ccc(Cl)cc1Cl (stereo not drawn) [TRG 2405-190],–,–,–,8.52,33.56,79.4,81,–,–,–,–,25 ± 30,13 ± 14%,109 ± 31,particularly effective MC receptor ligands,particularly effective at increasing IL-10,–,–,–
CNC(CN)CCCCN1Cc2ccccc2C(CNC2CCCCC2)C1c1ccc(N(C)C)cc1 (stereo not drawn) [TRG 2405-235],–,–,–,29.9,17.07,64.2,26.3,–,–,–,–,−11 ± 13,45 ± 18%,113 ± 15,–,–,–,–,–
CNC(CN)CCCCN1Cc2ccccc2C(CNC2CCCCC2)C1c1ccc(C(F)(F)F)cc1 (stereo not drawn) [TRG 2405-238],–,–,–,19.9,29.82,76.8,72.8,–,–,–,–,−17 ± 7,151 ± 26 %,118 ± 25,–,–,65 ± 15,–,–
CNC(CN)CCCCN1Cc2ccccc2C(CNC2CCCCC2)C1c1ccc(-c2ccccc2)cc1 (stereo not drawn) [TRG 2405-241],–,–,–,10.4,66.67,89.5,88.8,about 10 fold,–,–,–,117 ± 21,310 ± 35 %,406 ± 46,particularly effective MC receptor ligands,particularly effective at increasing IL-10,77 ± 37,9 ± 23,–
CNC(CN)CCCCN1Cc2ccccc2C(CNC2CCCCC2)C1c1ccc(Br)cc1 (stereo not drawn) [TRG 2405-242],–,–,–,13.1,55.89,86,83.4,–,–,–,–,–,−9 ± 7%,–,–,–,–,–,–
CNC(CN)CCCCN1Cc2ccccc2C(CNC2CCCCC2)C1c1ccc(O)cc1 (stereo not drawn) [TRG 2405-246],–,–,–,23.7,12.48,26.5,20.7,–,–,–,–,–,–,–,–,–,30 ± 5,–,–
CNC(CN)CCCCN1Cc2ccccc2C(CNC2CCCCC2)C1c1ccc(Oc2ccccc2)cc1 (stereo not drawn) [TRG 2405-252],–,–,–,16,33.07,95.1,95.5,about 10 fold,–,–,–,2 ± 13,–,307 ± 43,particularly effective MC receptor ligands,particularly effective at increasing IL-10,69 ± 19,–,–
CCCOc1ccc(C2C(CNC3CCCCC3)c3ccccc3CN2CCCCC(CN)NC)cc1 (stereo not drawn) [TRG 2405-253],–,–,–,8.5,22.55,93.9,92.2,about 10 fold,–,–,–,7 ± 21,–,325 ± 73,particularly effective MC receptor ligands,particularly effective at increasing IL-10,–,–,–
CNC(CN)CCCCN1Cc2ccccc2C(CNC2CCCCC2)C1c1ccc2cccc(O)c2n1 (stereo not drawn) [TRG 2405-262],–,–,–,> 50,–,66.1,66.8,–,–,–,–,–,–,191 ± 53,–,–,–,–,–
CNC(CN)CCCCN1Cc2ccccc2C(CN)C1c1ccc(Cl)cc1Cl (stereo not drawn) [TRG 2407-39],–,–,–,–,–,–,–,–,0.91,–,–,34 ± 13,–,366 ± 12,–,–,–,–,–

# Continued, in another order:
"IC50 ([1]; TRG 2405 section, inhibition of binding of 125I-HP 467, HEK 293 cells expressing MCR-1) [µM]",% Disp. MC-1 10 μM ([1]; first of duplicate) [%],% Disp. MC-1 10 μM ([1]; second of duplicate) [%],EC50 [2] [µM],MC-1 Max (pmole) cAMP produced [2] [pmol],% Disp. of 125I-HP 467 (first of duplicate) [1] [%],% Disp. of 125I-HP 467 (second of duplicate) [1] [%],specificity for at least one MC receptor over another MC receptor [1],"IC50 ([1]; TRG 2406 and TRG 2407 libraries, inhibition of binding of 125I-HP 467) [µM]","IC50 [1, 4] [µM]","IC50 ([1]; competition with 125I-HP 467, HEK 293 cells expressing MCR-1) [µM]",SMILES,"% IL-10 Induction, IP 30 [3] [%]","% IL-10 Induction, IP 100 [3]","% IL-10 Induction, IP 300 [3] [%]",effectiveness as MC receptor ligand [1],increase of IL-10 ([3]; plasma levels in mice),"% IL-10 Induction, Oral 600 [3] [%]","% IL-10 Induction, Oral 300 [3] [%]",increase of IL-10 ([3]; administered orally)
–,–,–,3.67,20.6,86.6,85.2,–,–,–,–,CCNc1ccc(C2C(CNC3CCCCC3)c3ccccc3CN2CCCCC(CN)NC)cc1 (stereo not drawn) [TRG 2405-239],44 ± 35,−29 ± 6%,197 ± 34,particularly effective MC receptor ligands,–,46 ± 14,–,–
–,–,–,2.83,125.79,–,–,about 10 fold,–,1.17,–,CCNc1ccc(C2C(CNC3CCCCC3)c3ccccc3CN2CCCCC(CN)NC)cc1 (stereo not drawn) [TRG 2408-30],−20 ± 14,–,24 ± 12,particularly effective MC receptor ligands,particularly effective at increasing IL-10,136 ± 41,33 ± 18,particularly effective at increasing IL-10
–,–,–,< 0.1,–,–,–,–,–,0.28,–,CCNc1ccc(C2C(CNCc3ccccc3O)c3ccccc3CN2CCCC(CN)NCCc2ccccc2)cc1 (stereo not drawn) [TRG 2408-57],123 ± 30,247 ± 75 % and 225 ± 31 %,386 ± 25,particularly effective MC receptor ligands,–,104 ± 16,57 ± 11,–
–,–,–,< 0.1,–,–,–,–,–,0.12,–,CCNc1ccc(C2C(CNC3CCCCC3)c3ccccc3CN2CCCC(CN)NCCc2ccccc2)cc1 (stereo not drawn) [TRG 2408-62],51 ± 15,–,270 ± 71,particularly effective MC receptor ligands,–,27 ± 10,43 ± 20,–
–,–,–,1.01,200,–,–,–,–,–,0.22,CCCCNc1ccc(C2C(CNCc3ccccc3O)c3ccccc3CN2CCCCC(CN)NC)cc1 (stereo not drawn) [TRG 2409-2],−30 ± 11,–,157 ± 57,particularly effective MC receptor ligands,–,82 ± 19,39 ± 15,–
